Where a name gives a salt, the structure may show the parent alone. Residues, ends and D or L forms follow the SMILES beside them. *: point of attachment. Cbz = O=C(OCc1ccccc1)*
Experiments:
PDCL3 = molecular target: T1, PDCL3 (Homo sapiens, UniProt Q9H2J4); assay: High throughput screening of LOPAC1280 for small molecule inhibitors of PDCL3; conditions: LOPAC1280, 1,280 pharmacologically active compounds
T1 sequence (Q9H2J4 1-239): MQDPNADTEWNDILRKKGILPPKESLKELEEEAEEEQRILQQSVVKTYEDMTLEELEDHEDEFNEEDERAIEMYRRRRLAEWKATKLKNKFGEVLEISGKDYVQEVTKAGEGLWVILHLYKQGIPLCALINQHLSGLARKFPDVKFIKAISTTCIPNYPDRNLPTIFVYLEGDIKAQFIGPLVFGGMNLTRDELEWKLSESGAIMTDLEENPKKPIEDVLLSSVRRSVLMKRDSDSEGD
Description: (§1) Given that PDCL3 plays a fundamental role in maturation and folding of receptor tyrosine kinases (RTKs), such as VEGFR-2, and considering that activity of these RTKs are cornerstone of tumor growth and metastasis, it was decided to screen for small molecule inhibitors that could antagonize PDCL3 function in tumor cells. LOPAC1280 (a library of Pharmacologically Active Compounds), which is a collection of 1,280 pharmacologically active compounds, was used. The library is most commonly used to validate new drug discovery assays and characterize orphan targets. 16 lead compounds were identified as PDCL3 inhibitors and their potency and efficacy in inhibition of PDCL3 was validated. The structures of these 16 lead compounds, namely, Reserpine, DAPH, AC-93253 iodide, Emodin, Sunitinib malate, GW2974, Urapidil Hydrochloride, Mecamylamine hydrochloride, (−)-MK-801 hydrogen maleate, AGK2, Tyrphostin AG 112, Tyrphostin 23, Tyrphostin 51, I-Ome-Tyrophostin AG 538, and Isoliquiritgenin are provided herein at FIG. 14B.
as §1, with “validated. […] Chemical formulas for” for “validated. The structures of”, “these compounds” for “these 16 lead compounds, namely, Reserpine, DAPH, AC-93253 iodide, Emodin, Sunitinib malate, GW2974, Urapidil Hydrochloride, Mecamylamine hydrochloride, (−)-MK-801 hydrogen maleate, AGK2, Tyrphostin AG 112, Tyrphostin 23, Tyrphostin 51, I-Ome-Tyrophostin AG 538, and Isoliquiritgenin”, “herein in” for “herein at”

VEGFR-2 [1] = assay: Cycloheximide-chase / VEGF-induced downregulation of VEGFR-2; assay type: cell-based; conditions: PAE cells, cycloheximide 20 μg/ml, 90 min
Method: FIG. 2A. Illustrated is the schematic of treatment of cells with cycloheximide (CHX) and VEGF. PAE cells co-expressing VEGFR-2 with empty vector (pMSCV) or PDCL3 were incubated with CHX for 90 minutes followed by stimulation with VEGF for indicated times. Whole cell lysates was blotted for VEGFR-2 and loading control protein, PLCγ1. FIG. 2B. Shown are the quantification of the half-life of mature VEGFR-2 and pre-mature VEGFR-2 based on the VEGFR-2 blot from the panel FIG. 2A. FIGS. 2C-2D. PAE cells co-expressing VEGFR-2 with empty vector (pMSCV) or PDCL3 were stimulated with VEGF for indicated times and whole cell lysates were processed as panel FIG. 2A.
PAE cells expressing VEGFR-2 alone or together with PDCL3 were serum-starved for overnight followed by incubation of cells with serum-free DMEM medium containing cycloheximide (20 μg/ml, 90 min). Cells then were stimulated with VEGF for various times to downregulate cell surface VEGFR-2. Cells were lysed and whole cell lysates was blotted for VEGFR-2 using anti-VEGFR-2 antibody. For measuring half-life of PDCL3 and HA-tagged mutant PDCL3, cells were incubated with serum-free DMEM medium containing cycloheximide (20 μg/ml) for indicated times and cells were lysed and whole cell lysates was blotted for PDCL3.

VEGFR-2 [2] = assay: In vitro transcription/translation of VEGFR-2; assay type: biochemical
Method: FIG. 1A. HEK-293 cells expressing VEGFR-2 were transfected with different concentrations of C-terminus Myc-tagged PDCL3. After 48 hours cells were lysed and whole cell lysates (WCL) were blotted for VEGFR-2, PDCL3 and Hsp70 for loading control. Quantification of premature (newly synthesized and partially glycosylated VEGFR-2 corresponding to lower molecular weight) and mature (fully glycosylated) forms of VEGFR-2 is shown. Mean results of three independent experiments are shown. *P=0.04 and […]. FIG. 1B. Human umbilical vein endothelial cells (HUVECs) were transfected with control siRNA or PDCL3-siRNA. After 48 hours cells serum-starved for overnight followed by stimulation with VEGF for 10 minutes. Cells were lysed and whole cell lysates were blotted for phospho-Y1054-VEGFR-2, total VEGFR-2, PDCL3 and Hsp70 for loading control. FIG. 1C. Thermo-induced aggregation of VEGFR-2 was measured using PSA dye as described in the materials and method section. FIG. 1D. In vitro transcription/translation of VEGFR-2 in the absence or presence of exogenous recombinant PDCL3 was performed as described in the materials and method section and schematic of the procedure is shown. FIG. 1E. In vitro translated VEGFR-2 protein in the absence or presence of exogenous recombinant PDCL3 was blotted for VEGFR-2. FIG. 1F. […]

Row | SMILES | identified as PDCL3 inhibitor / specifically targeting PDCL3 (PDCL3) | further results
1 | CC12NC(Cc3ccccc31)c1ccccc12.O=C(O)/C=C/C(=O)O (single isomer, unassigned; (-)) [(−)-MK-801 hydrogen maleate, 1-Methyl-16-azatetracyclo[7.6.1.02,7.010,15]hexadeca-2,4,6,10,12,14-hexaene (2E)-2-butenedioate (1:1)] | identified as specifically targeting PDCL3 | –
2 | CC[n+]1c(/C=C/C=C2/N(C)c3ccccc3C2(C)C)sc2ccccc21.[I-] [AC-93253 iodide, 3-Ethyl-2-[(1E,3E)-3-(1,3,3-trimethyl-1,3-dihydro-2H-indol-2-ylidene)-1-propen-1-yl]-1,3-benzothiazol-3-ium iodide] | identified as specifically targeting PDCL3 | –
3 | N#C/C(=C\c1ccc(-c2cc(Cl)ccc2Cl)o1)C(=O)Nc1cccc2ncccc12 [AGK2, (2E)-2-Cyano-3-[5-(2,5-dichlorophenyl)-2-furyl]-N-(5-quinolinyl)acrylamide] | identified as specifically targeting PDCL3 | –
4 | C[C@@H]1C[C@@H]([C@H](O)CC2CC(=O)NC(=O)C2)C(=O)[C@@H](C)C1 [Cycloheximide] | – | VEGFR-2 protein synthesis (VEGFR-2 [1]): inhibited VEGFR-2 protein synthesis
5 | O=C1NC(=O)c2cc(Nc3ccccc3)c(Nc3ccccc3)cc21 [DAPH, 5,6-Dianilino-1H-isoindole-1,3(2H)-dione] | identified as specifically targeting PDCL3 | –
6 | Cc1cc(O)c2c(c1)C(=O)c1cc(O)cc(O)c1C2=O [Emodin, 1,3,8-Trihydroxy-6-methyl-9,10-anthraquinone] | identified as specifically targeting PDCL3 | –
7 | CN(C)c1cc2c(Nc3ccc4c(cnn4Cc4ccccc4)c3)ncnc2cn1 [GW2974, N4-(1-Benzyl-1H-indazol-5-yl)-N6,N6-dimethylpyrido[3,4-d]pyrimidine-4,6-diamine] | identified as specifically targeting PDCL3 | –
8 | COc1cc(C=C(C#N)C(=O)c2ccc(O)c(O)c2)cc(I)c1O [I-Ome-Tyrophostin AG 538, α-Cyano-(3-methoxy-4-hydroxy-5-iodocinnamoyl)-(3′,4′-dihydroxyphenyl)ketone] | identified as specifically targeting PDCL3 | –
9 | O=C(/C=C/c1ccc(O)cc1)c1ccc(O)cc1O [Isoliquiritgenin, (E)-1-(2,4-dihydroxyphenyl)-3-(4-hydroxyphenyl)prop-2-en-1-one] | identified as specifically targeting PDCL3 | –
10 | CC(C)C[C@@H](C=O)NC(=O)[C@H](CC(C)C)NC(=O)[C@H](CC(C)C)NC(=O)OCc1ccccc1 [MG132] (Cbz-Leu-Leu-Leu-aldehyde) | – | yield of in vitro translated VEGFR-2 (VEGFR-2 [2]): this effect of PDCL3 was further augmented
11 | CNC1(C)C2CCC(C2)C1(C)C.Cl (centres unmarked) [Mecamylamine hydrochloride, N,2,3,3-Tetramethylbicyclo[2.2.1]heptan-2-amine hydrochloride (1:1)] | identified as specifically targeting PDCL3 | –
12 | COC(=O)[C@H]1[C@H]2C[C@@H]3c4[nH]c5cc(OC)ccc5c4CCN3C[C@H]2C[C@@H](OC(=O)c2cc(OC)c(OC)c(OC)c2)[C@@H]1OC [Reserpine, Methyl (3β,16β,17α,18β,20α)-11,17-dimethoxy-18-[(3,4,5-trimethoxybenzoyl)oxy]yohimban-16-carboxylate] | identified as specifically targeting PDCL3 | –
13 | CCN(CC)CCNC(=O)c1c(C)[nH]c(/C=C2\C(=O)Nc3ccc(F)cc32)c1C.O=C(O)C[C@H](O)C(=O)O [Sunitinib malate, (2S)-2-Hydroxysuccinic acid-N-[2-(diethylamino)ethyl]-5-[(Z)-(5-fluoro-2-oxo-1,2-dihydro-3H-indol-3-ylidene)methyl]-2,4-dimethyl-1H-pyrrole-3-carboxamide (1:1)] | identified as specifically targeting PDCL3 | –
14 | N#CC(C#N)=Cc1ccc(O)c(O)c1 [Tyrphostin 23, (3,4-Dihydroxybenzylidene)malononitrile] | identified as specifically targeting PDCL3 | –
15 | N#CC(C#N)=C(N)/C(C#N)=C/c1cc(O)c(O)c(O)c1 [Tyrphostin 51, (3Z)-2-Amino-4-(3,4,5-trihydroxyphenyl)-1,3-butadiene-1,1,3-tricarbonitrile] | identified as specifically targeting PDCL3 | –
16 | N#CC(C#N)=C(N)/C(C#N)=C/c1ccc(O)cc1 [Tyrphostin AG 112, (3Z)-2-Amino-4-(4-hydroxyphenyl)-1,3-butadiene-1,1,3-tricarbonitrile] | identified as specifically targeting PDCL3 | –
17 | COc1ccccc1N1CCN(CCCNc2cc(=O)n(C)c(=O)n2C)CC1 [Urapidil Hydrochloride, 6-({3-[4-(2-Methoxyphenyl)-1-piperazinyl]propyl}amino)-1,3-dimethyl-2,4(1H,3H)-pyrimidinedione] | identified as specifically targeting PDCL3 | –

— patent US11406709B2, “Therapeutic and research application of PDCL3” (TRUSTEES OF BOSTON UNIVERSITY, priority 2014, dated 2022)
